# In paper PMC5743070 (The Journal of Biological Chemistry, 2017):
# Where “and” joins values, the source holds several entries; their conditions need not be identical. Equal values may be shown once. Read-outs that look alike come from different tables or passages of the source.
# Key:
# TTD (UHRF1_121–286) = target: T1, TTD (UHRF1_121–286) (Homo sapiens, UniProt Q96T88); assay: ITC of BPC binding to TTD
# T1 construct: UHRF1_121–286 corresponding to the TTD; made in house
# T1 sequence (Q96T88 121-286): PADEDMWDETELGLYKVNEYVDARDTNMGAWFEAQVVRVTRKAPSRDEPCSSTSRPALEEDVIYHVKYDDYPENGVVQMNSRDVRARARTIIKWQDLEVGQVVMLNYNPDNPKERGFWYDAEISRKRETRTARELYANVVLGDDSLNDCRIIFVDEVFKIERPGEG
# Description: For ITC measurements of TTD–PHD (UHRF1_126–366) interaction with H3K9me3, samples were dialyzed into a buffer containing 10 mM HEPES (pH 7.5), 150 mM NaCl, 1 mM TCEP, and 30 μM ZnCl2. […] A preliminary peptide injection of 0.06 μl was followed by subsequent 2-μl injections into the sample cell containing 167 μl of 50 μM TTD–PHD. Where indicated, 1.5 mM BPC or 1.5 mM PBR peptide was included in the injection syringe and sample cell. The reported KD and n values are based on the average from two measurements. For ITC measurements of TTD (UHRF1_121–286) interaction with BPC, the protein was buffered in 20 mM Tris (pH 7.4), 50 mM NaCl, and 5% DMSO. BPC was brought to a concentration of 2.5 mM and injected into the sample cell containing 40 μM protein. The data were acquired on a Nano ITC from TA Instruments at 25 °C and fitted with an independent-binding site model using NanoAnalyze software (v3.7.0). […]
# Binding of BPC in the groove of TTD.
# labeled (at the N-terminus) H3K9me3(1-25) peptide, (B) ITC, and (C) DSF. […]
# TTD–PHD (UHRF1_126–366) = target: T2, TTD–PHD (UHRF1_126–366) (Homo sapiens, UniProt Q96T88); assay: SES ensemble fitting of SAXS data of TTD–PHD with BPC
# T2 construct: His tag (TEV-cleavable) (N); made in house
# T2 sequence (Q96T88 126-366): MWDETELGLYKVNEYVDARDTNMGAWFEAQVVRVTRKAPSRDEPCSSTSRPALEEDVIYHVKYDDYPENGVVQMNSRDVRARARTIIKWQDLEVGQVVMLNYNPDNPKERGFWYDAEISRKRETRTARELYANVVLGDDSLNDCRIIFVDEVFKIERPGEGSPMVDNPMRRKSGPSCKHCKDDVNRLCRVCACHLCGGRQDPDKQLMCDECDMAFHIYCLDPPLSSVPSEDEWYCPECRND
# Excerpt: The Rg-based Kratky plot is shifted to higher coordinate values with respect to its position for apo TTD–PHD (supplemental Fig. S4). […] We performed SES fitting of SAXS data collected for TTD–PHD in the presence of BPC using MDPIN/OUT. The optimal ensemble, OEBPC(SAXS), fits the data reasonably well in the q range of 0 < q < 0.2. The Rg distribution is bimodal with the major peak at ∼25 Å and a minor peak at ∼34 Å (Fig. 4D). […] These less-compact, “linker-out” conformers should be unable to bind to H3K9me3 peptides in a cooperative manner (as in PDB code 3ASK ([10], [23])) and, in addition, be unable to bind via the isolated TTD because groove-H3K9me3 contacts found to be essential for this binding mode, as reported by Nady et al. ([9]), are blocked.
# We used an ensemble approach for the structural characterization of the TTD–PHD in solution by utilizing the SES protocol ([18]). The strategy on which the SES method is based consists of two main steps: 1) generate the initial ensemble of conformations to approximate the conformational space available for a system in solution and 2) find the optimal population weight for each member of the initial ensemble that minimizes the discrepancy between the ensemble-predicted and the observed experimental data. The goodness of the ensemble fit is measured as χ^2. […] The ARMOR output was analyzed to select the optimal ensemble size using the l-curve ([18]), and the vector of the optimal weights, w, was calculated by averaging over top near optimal solutions with similar value of χ^2. […]
# solubility (statement) = assay type: physicochemical
# [1] = ITC, 2.5 mM BPC into 40 μM TTD, pH 7.4, 5% DMSO, 25 °C
# [2] = SES fitting using MDPIN/OUT, TTD–PHD with BPC
structure (smiles),measurement,setting,value
"N=C(N)N1CCC(Cc2ccccc2)CC1 [BPC, 4-benzylpiperidine-1-carboximidamide]",Kd,"TTD (UHRF1_121–286); ITC, 2.5 mM BPC into 40 μM TTD, 20 mM Tris pH 7.4, 50 mM NaCl, 5% DMSO, 25 °C, independent-binding site model, read-out: KD",46 µM
same,"H (enthalpy of binding, ITC)",TTD (UHRF1_121–286); [1],-2.6 kcal/mol
same,"S (entropy of binding, ITC)",TTD (UHRF1_121–286); [1],11.0 cal/mol∙K
same,calculated ligand efficiency (binding energy per heavy atom),TTD (UHRF1_121–286); calculated from KD for TTD,0.38
same,Kd,"TTD (UHRF1_121–286); isolated TTD, estimated using ITC and DSF, read-out: estimated KD",50 µM and ~50 µM
same,contribution of linker-bound structures to OEBPC(SAXS),"TTD–PHD (UHRF1_126–366); 6,000 starting structures with linker bound to groove",zero contribution
same,"Rg distribution of OEBPC(SAXS), major peak",TTD–PHD (UHRF1_126–366); [2],~25 Å
same,"Rg distribution of OEBPC(SAXS), minor peak",TTD–PHD (UHRF1_126–366); [2],~34 Å
same,solubility,solubility (statement),highly soluble
